The values below come from US20230248832A1, “Small Molecule Ligand-Drug Conjugates for Targeted Cancer Therapy” (Emory University, priority 2008, published 2023).

SMILES strings stand for the structures. “Also recorded” adds a separate entry of the source. Read-outs that look alike come from different tables or passages of the source.

Data set [1] relates to cancer. In words: In vitro cancer targeting of IR783 derivatives. Type of data set: cell-based.
In data set [2] the test system is cancer. The data set is described as follows: In vivo cancer targeting of IR783 derivatives.
Data set [3] relates to C4-2 human prostate cancer cells implanted subcutaneously. In words: Subcutaneous C4-2 prostate tumor model. Type of data set: in vivo, athymic nude mice. Particulars: for incidence of tumor formation: SQ C4-2, i.p., IR783 and IR-MUT1 5 mg/kg daily, taxotere 15 mg/kg twice per week; for apoptosis in SQ C4-2 tumors (histopathology, H/E stain): SQ C4-2 tumors in mice. As for the experimental part: 1 million C4-2 human prostate cancer cells were implanted subcutaneously into the back of the 4 to 6 week old athymic nude mice. […] Tumor diameters were measured with a caliper, and tumor volume in mm^3 is calculated by the formula: Volume=(width)^2×length/2.
Serum PSA levels were used to monitor tumor growth in a C4-2 SQ tumor model. Mice were checked for serum PSA levels before implantation and at 35 and 45 days after tumor cell implantation.
(§1) C4-2 prostate cancer cells were subcutaneously implanted into the back of the 4 to 6 week old athymic nude mice. […] The serum prostate specific antigen (PSA) levels, which indicating the presence of prostate cancers, were monitored during the tumor reduction study.

Data set [4] deals with C4-2 human prostate cancer cells implanted intraosseously into the tibia. In words: Intratibial C4-2 prostate tumor model. Format: in vivo, athymic nude mice. The following applies: for tumors growing from tibia (incidence): i.p. from 30 days after implantation. As for the experimental part:
1 million C4-2 human prostate cancer cells were implanted intraosseously into the tibia of the 4 to 6 week old athymic nude mice. […] The animals were observed daily and body weights were measured daily. Tumor diameters are measured with calipers, and tumor volume in mm^3 is calculated by the formula: Volume=(width)^2×length×0.5236.
In another tumor model, C4-2 cancer cells were administered intraosseously into the tibia of the 4 to 6 week old athymic nude mice.

Another data set concerns cancer cells. In words: Toxicity to cancer cells at day 2 (FIG. 6). Format: cell-based. Particulars: evaluated at day 2; compared with free nonconjugated drug taxotere. An excerpt:
IR-783 (dye molecule only) is nontoxic. […] This is expected since IR783 conjugated to docetaxel or paclitaxel, accumulation in cells require enzymatic activation, which releases the active taxotere or taxol component inside of the cells to exert cytotoxicity against the growth of cancer cells.

Data set [5] in a line: Body weight during treatment of C4-2 tumor-bearing mice. Format: in vivo, athymic nude mice. Particulars: i.p.
From the text: During treatment, the body weights were obtained daily.
as §1

Data set [6] concerns C4-2 human prostate cancer cells. The data set is described as follows: MTT cytotoxicity assay, C4-2. Format: cell-based. The following applies: C4-2 cells, 48 hrs. As for the experimental part:
(§2) C4-2 (FIG. 13A) and P69 (FIG. 13B) cells were plated in 96 well plates (3,000/well). […] (FIG. 13C) SN12C and (FIG. 13D) HEK293 cells were plated in 96 well plates (3,000/well).
A general note: Tetrazolium dyes change colour on reduction, which living cells bring about.

Data set [7] concerns P69 normal human prostate epithelial cells. The data set is described as follows: MTT cytotoxicity assay, P69. Format: cell-based. The following applies: Epithelial cell, 48 hours. As for the experimental part:
as §2

Data set [8] deals with SN12C human renal cancer cells. In words: MTT cytotoxicity assay, SN12C. Format: cell-based. The following applies: 48 hrs. As for the experimental part: as §2
Data set [9] deals with HEK293 human embryonic kidney cells. The data set is described as follows: MTT cytotoxicity assay, HEK293. Particulars: 48 hrs. Format: cell-based. As for the experimental part: as §2

As to `CCn1/c(=C/C=C/C2=[N+](CC)c3cccc4cccc2c34)c2cccc3cccc1c32`, the In vitro targeting entry with cancer [1] is “good”. Besides, the In vivo targeting result in the data set on cancer [2] was “poor”.

`CC1(C)C(/C=C/C2=C(Cl)C(=C/C=C3/N(CCCCC(=O)O)c4ccccc4C3(C)C)/CCC2)=[N+](CCCCC(=O)[O-])c2ccccc21`: the In vitro targeting entry with cancer [1] is recorded as “excellent”. The In vivo targeting entry in the data set with cancer [2] is reported as “excellent”.

Consider `COc1ccc2c(c1)C(C)(C)C(/C=C/C=C/C=C1/N(C)c3ccc(OC)cc3C1(C)C)=[N+]2C.[I-]`, for which, in the data set with cancer [1], the In vitro targeting result is listed as “excellent”.

On to `CN1/C(=C/C=C(Cl)/C=C/C2=[N+](C)c3ccc4ccccc4c3C2(C)C)C(C)(C)c2c1ccc1ccccc21`, for which, in the data set with cancer [1], the In vitro targeting result is on record as “excellent”.

For `CN1/C(=C/C=C(Cl)/C=C/C2=[N+](C)c3ccccc3C2(C)C)C(C)(C)c2ccccc21.[I-]`, in the data set with cancer [1], the In vitro targeting result is given as “excellent”.

As to `CC1(C)C(/C=C/C2=C(Cl)C(=C/C=C3/N(CCCCCC(=O)O)c4ccccc4C3(C)C)/CCC2)=[N+](CCCCCC(=O)O)c2ccccc21.[Na+].[Na+]`, the In vitro targeting entry in the data set on cancer [1] was “excellent”. Also, the In vivo targeting result with cancer [2] was “excellent”.

Consider `CC1(C)C(/C=C/C2=C(Cl)C(=C/C=C3/N(CCCCO)c4ccccc4C3(C)C)/CCC2)=[N+](CCCCO)c2ccccc21`, for which the In vitro targeting entry with cancer [1] is on record as “poor”. Also, the In vivo targeting entry with cancer [2] is “poor”.

Consider `CC1(C)C(/C=C/C2=C(Cl)C(=C/C=C3/N(CCCc4ccccc4)c4ccccc4C3(C)C)/CCC2)=[N+](CCCc2ccccc2)c2ccccc21`, for which the In vitro targeting entry with cancer [1] is “excellent”. Moreover, the In vivo targeting result in the data set with cancer [2] is given as “poor”.

As for `CC1(C)C(/C=C/C2=C(Cl)C(=C/C=C3/N(CCO)c4ccccc4C3(C)C)/CCC2)=[N+](CCO)c2ccccc21`, the In vitro targeting entry in the data set with cancer [1] is “excellent”. The In vivo targeting entry in the data set with cancer [2] is “low intensity”.

In the case of `CN1/C(=C/C=C2\CCCC(/C=C/C3=[N+](C)c4ccc5ccccc5c4C3(C)C)=C2Cl)C(C)(C)C2=c3ccccc3=CCC21.[I-]` (stereo not shown), the In vivo targeting result in the data set on cancer [2] was “poor”.

Regarding `I.O=C1C(/C=c2\c3cccc4cccc(c43)n2CCCc2ccccc2)=C([O-])C/1=C/C1=[N+](CCCc2ccccc2)c2cccc3cccc1c23`, in the data set with cancer [2], the In vivo targeting result is reported as “poor”.

As for `O=C(O)CCCCCn1/c(=C/C=C2\CCCC(/C=C/C3=[N+](CCCCCC(=O)O)c4cccc5cccc3c45)=C2Cl)c2cccc3cccc1c32.[Na+].[Na+]`, in the data set on cancer [1], the In vitro targeting result was “poor”. Also, the In vivo targeting entry with cancer [2] was “poor”.

For the compound `CC1(C)C(=CC=C2CCCC(C=CC3=[N+](CCCCS(=O)(=O)[O-])c4ccccc4C3(C)C)=C2Cl)N(CCCCS(=O)(=O)[O-])c2ccccc21.[Na+]` [IR-783, reference compound], in data set [3], the “incidence of tumor formation” value is recorded as 9/20. Also, the “apoptosis in SQ C4-2 tumors (histopathology, H/E stain)” value in data set [3] is listed as “negligible”; in [3] (listed as IR783) it was “not affected”. Moreover, the “bone lesions on X-ray” value in data set [4] is “both the osteolytic and osteoblastic lesions were apparently observed”; in data set [4] (listed as IR783), “severe osteolytic lesions”. In addition, the “average volume of tumor” value in data set [4] (IR-783 group versus IR-MUT1 group) is reported as “significantly higher”. Besides, the “tumors growing from tibia (incidence)” value in data set [4] is given as 4/5. The “toxicity to cancer cells” value in the data set with cancer cells is on record as “nontoxic”. In addition, the “effect on body weight” value in data set [5] is recorded as “no body weight loss”.

The IC50 is the concentration needed to halve the response being measured. Read a high IC50 as weaker potency. With `CC(=O)O[C@@]12CO[C@@H]1C[C@H](O)[C@@]1(C)C(=O)[C@H](O)C3=C(C)[C@@H](OC(=O)[C@H](O)[C@@H](NC(=O)OC(C)(C)C)c4ccccc4)C[C@@](O)([C@@H](OC(=O)c4ccccc4)[C@H]21)C3(C)C` [taxotere, docetaxel, reference compound], the IC50 was 10 nM in data set [6], around 10 nM in [7], 12 nM in [8] and around 600 nM in data set [9]. The “serum PSA levels” value in data set [3] (35 and 45 days after tumor cell implantation, compared with IR-783 (control) group) is reported as “greatly depressed; also recorded: dramatically lower; also recorded: significantly lower”. Also, the “incidence of tumor formation” value in data set [3] is “no tumor growing; also recorded: no tumor formed”. In data set [4], the “bone lesions on X-ray” value is “no lesion”. For the same compound, in data set [4], the “tumors growing from tibia (incidence)” value is given as 0/5. The “effect on body weight” value in data set [5] was “noticeably lower”.
